Key:
[1] = Spontaneous Raman / hyperspectral SRS spectroscopy of probes and uncaged alkynes; type: physicochemical; conditions: for Raman Peak: cell silent region, model systems; for RIE (relative Raman intensity to EdU): 10 mM EdU (H2O) as standard
Text: (§1) An integrated laser (picoEMERALD, Applied Physics and Electronics, Inc.) was used as a light source for both pump and Stokes beams. It produces 2 ps pump (tunable from 770 nm - 990 nm, bandwidth 0.5 nm, spectral bandwidth ~ 7 cm-1 ) and Stokes (1031.2 nm, spectral bandwidth 10 cm-1 ) beams with 80 MHz repetition rate. Stokes beam is modulated at 20 MHz by an internal electro-optic modulator. The spatially and temporally overlapped pump and Stokes beams are introduced into an inverted multiphoton laser scanning microscopy (FV3000, Olympus), and then focused onto the sample by a 25X water objective (XLPLN25XWMP, 1.05 N.A., Olympus). Transmitted pump and Stokes beams are collected by a high N.A. condenser lens (oil immersion, 1.4 N.A., Olympus) and pass through a bandpass filter (893/209 BrightLine, 25 mm, AVR Optics) to filter out Stokes beam. A large area (10×10 mm) Si photodiode (S3590-09, Hamamatsu) is used to measure the remaining pump beam intensity. 64 V DC voltage was used on the photodiode to increase saturation threshold and reduce response time. The output current is terminated by a 50 Ω terminator and pre-filtered by an 19.2-23.6-MHz band-pass filter (BBP-21.4+, Mini-Circuits) to reduce laser and scanning noise. The signal is then demodulated by a lock-in amplifier (SR844, Stanford Research Systems) at the modulation frequency. The in-phase X output is fed back to the Olympus IO interface box (FV30-ANALOG) of the microscope. Image acquisition speed is limited by 30 µs time constant set for the lock-in amplifier. Correspondingly, we use 80 µs pixel dwell time, which gives a speed of 8.5 s frame-1 for a 320-by-320-pixel field of view. Laser powers are monitored through image acquisition by an internal power meter and power fluctuation are controlled within 5% by the laser system. 16-bit grey scale images are acquired by Fluoview software. SRS spectra were acquired by fixing the Stokes beam at 1031.2 nm and scanning the pump beam through the designated wavelength range point by point. 10 mM EdU (H2O) sample was used as a standard to give RIE of different probes. Fluorescence images were collected using the same Olympus FV3000 confocal microscope with CW laser excitation (405, 488, 561 and 640 nm, Coherent OBIS LX laser) and standard bandpass filter sets. The correlation coefficients (Pearson’s R value) between SRS images and fluorescence images were calculated using ‘Coloc 2’ tool of ImageJ.
To perform spontaneous Raman spectroscopy, spontaneous Raman spectra were acquired using an upright confocal Raman spectrometer (Horiba Raman microscope; Xplora plus). A 532 nm YAG laser is used to illuminate the sample with a power of 12 mW on sample through a 100 x, N.A. 0.9 objective (MPLANN; Olympus) with 100 µm slit and 500 µm hole. Spectro/Raman shift center was set to be 2000.04 cm-1 . With a 1200 grating, Raman shift ranges from 690.81 cm-1 to 3141.49 cm-1 was acquired to cover whole biological relevant Raman peaks. The acquired spectra were processed by the LabSpec 6 software for baseline correction.
Cyclopropenone caging has been previously adopted for photoactivation and subsequent biorthogonal labeling of fluorophores in fluorescence microscopy. […] Herein the alkyne Raman signal generation from photo-DIBO light-activation was first measured (FIG. 1A). […] Compared to 5-ethynyl-2′-deoxyuridine (EdU), the well-adopted benchmark for Raman intensity quantification, the relative Raman intensity to EdU (RIE) of the strained alkyne DIBO is only 1.8 (Table 1). […] Given this, it is reasoned that diphenylcyclopropenone (i.e. cyclopropenone-caged 1-yne, 1-cyclo, 1, FIG. 1A) should be a better photoactivatable Raman scaffold with higher Raman sensitivity after uncaging. Indeed, UV-uncaging of 1-cyclo (1), which started from a similarly weak Raman peak at 1860 cm^-1 from photo-DIBO, produced an intense sharp peak for 1-yne (2) at 2226 cm^-1 (FIG. 1B, dashed black vs solid blue spectra) with an improved RIE values to about 4

[2] = UV-Vis absorption spectra; type: physicochemical; conditions: 20 uM in DMSO
Method: UV-Vis absorption spectra were recorded on a Varian Cary 50 UV-Vis Spectrophotometer (Agilent).

[3] = Photoactivation (UV-uncaging) monitored by time-series spontaneous Raman spectra; type: physicochemical
Method: The 365 nm UV light used to activate cyclopropenones comes from a UV handlamp (Analytik Jena UVP EL Series Lamp, UVLS-24, 4 Watt, 2 UV 254/365 nm, typically used for TLC monitoring in organic synthesis). The power of 365 nm UV of this handlamp was measured to be 15 mW/cm2 on samples.
Next, the photo-uncaging kinetics for both 1-cyclo (1) and 2-cyclo (3) were compared. […] With 365 nm lamp illumination, the characteristic peaks of cyclopropenones (~1860 cm^-1) continue to drop while the alkyne peaks (2226 cm^-1) gradually increase for both molecules (FIG. 1D). […] The progression of the UV-activation reactions could also be confirmed by the change in the corresponding absorption spectra (FIG. 6).

lipid droplets = test: Live-cell photo-uncaging lipid droplets imaging, SRS/fluorescence co-localization; type: cell-based; conditions: live HeLa cells, SRS vs Lipid spot 610
Text: as §1
Lipid droplets imaging by Me-LD (15): Cells were incubated in 20 µM Me-LD (15) with complete DMEM medium for 30 minutes in the incubator. Cells were washed with PBS three times before imaging. For colocalization, 0.5 x LipidSpot™ 610 (Biotium, #70069) was used to stain cells for 20 minutes. For photo-uncaging, 405 nm laser was used to scan the selected field of view for 2 minutes (1.6 mW).
Lipid droplets imaging by Cyclo-LD (17): Cells were washed with PBS for three times before labeling. Cells were then incubated in 20 µM Cyclo-LD (17) with PBS for 30 minutes in the incubator. Cells were washed with PBS three times before imaging. For colocalization, 0.5 x LipidSpot™ 610 (Biotium, #70069) was used to stain cells for 20 minutes. For photo-uncaging, 405 nm laser (1.6 mW) was used to scan the selected field of view for 2 minutes.

live HeLa cells = test: SRS imaging of live HeLa cells incubated with unmethylated probes before and after 405 nm illumination; type: cell-based; conditions: 20 µM, 30 minutes of labeling; 2226 cm^-1 channel after 405 nm
Method: FIG. 7 provides exemplary results from SRS imaging of live HeLa cells incubated with 1-cyclo (1, 20 µM, 30 minutes of labeling, top) and Cyclo-Mito (7, 20 µM, 30 minutes of labeling, bottom) at the CH3 (2940 cm^-1) channel, and the expected uncaged alkyne channel (2226 cm^-1) before and after 405 nm illumination. Scale bar: 10 µm.
An integrated laser (picoEMERALD, Applied Physics and Electronics, Inc.) was used as a light source for both pump and Stokes beams. It produces 2 ps pump (tunable from 770 nm - 990 nm, bandwidth 0.5 nm, spectral bandwidth ~ 7 cm-1 ) and Stokes (1031.2 nm, spectral bandwidth 10 cm-1 ) beams with 80 MHz repetition rate. Stokes beam is modulated at 20 MHz by an internal electro-optic modulator. […] Laser powers are monitored through image acquisition by an internal power meter and power fluctuation are controlled within 5% by the laser system. […] Fluorescence images were collected using the same Olympus FV3000 confocal microscope with CW laser excitation (405, 488, 561 and 640 nm, Coherent OBIS LX laser) and standard bandpass filter sets. The correlation coefficients (Pearson’s R value) between SRS images and fluorescence images were calculated using ‘Coloc 2’ tool of ImageJ.

endoplasmic reticulum = test: Live-cell photo-uncaging ER imaging, SRS/fluorescence co-localization; type: cell-based; conditions: live HeLa cells
Text: as §1
ER imaging: Cells were incubated in 40 µM Me-ER (14) with complete DMEM medium for 2 hours in the incubator. Cells were washed with PBS three times before imaging. For colocalization, 0.5 µM ER-Tracker™ Red (Invitrogen, E34250) was used to stain cells for 1 hour. For photo-uncaging, 405 nm laser was used to scan the selected field of view for 2 minutes (1.6 mW).

lysosomes = test: Live-cell photo-uncaging lysosomes imaging, SRS/fluorescence co-localization; type: cell-based
Text: as §1
Lysosomes imaging: Cells were incubated in 30 µM Me-Lyso (13) with complete DMEM medium for 2 hours in the incubator. Cells were washed with PBS three times before imaging. For colocalization, 0.4 x LysoView™ 488 (Biotium, #70067) was used to stain cells for 30 minutes. For photo-uncaging, 405 nm laser was used to scan the selected field of view for 2 minutes (1.6 mW).

[4] = (HP)LC-MS for assessing the stability of cyclopropenone probes in physiological condition; type: physicochemical; conditions: 10 mM cysteine (PBS), 37° C., HPLC trace
Method: The assessed probe was first dissolved in DMSO and later diluted in 10 mM cysteine (Sigma, 168149, dissolved in PBS) solution or DMEM (Corning, 35-015-CV) medium. Analytical HPLC coupled with mass spectrometry (LC-MS) was performed on Agilent 1290 infinity LC system using ZORBAX RRHD Eclipse Plus C18, 95 Å, 2.1 x 50 mm, 1.8 µm column with Agilent 6140 Series Quadrupole LCMS / LC-MS / MSD / Mass Spectrometer System. The mobile phase is water (0.1% AcOH) and acetonitrile with running method of gradient 5%-95% acetonitrile (1 ml/min, 4 min for total running time). The mass spectrometry detection region ranges from 100 to 800 AMU. The data shown in the main figures and supplementary figures are the absorption (280.8 nm) intensity traces.
It was hypothesized that this was likely because the cyclopropenone structures are susceptible to nucleophilic attack, leading to ring-opened α,β-unsaturated acids derivatives. Cysteines, glutathione, and other biological thiols are strong nucleophiles and could easily deactivate cyclopropenones. The stability of 1-cyclo (1) in 10 mM cysteine phosphate-buffered saline (PBS) at 37° C. was therefore tested, mimicking physiological conditions.

mitochondria = test: Live-cell photo-uncaging mitochondria imaging, SRS/fluorescence co-localization; type: cell-based; conditions: live HeLa cells
Text: as §1
Mitochondria imaging: Cells were incubated in 16 µM Me-Mito (12) or Me-Mito^13C (16) with complete DMEM medium for 40 minutes in the incubator. Cells were washed with PBS three times before imaging. For colocalization, 80 nM MitoTracker™ Deep Red (Invitrogen, M22426) was used to stain cells for 25 minutes. […]

[5] = SRS vs ER tracker red, Fl/2205 cm^-1 channel
[6] = live HeLa cells, SRS vs Lysoview 488, Fl/2205 cm^-1 channel
[7] = SRS vs Mitotracker deep red, Fl/2225 cm^-1 channel

C(#Cc1ccccc1)c1ccccc1 [1-yne (2), diphenylacetylene]
Raman Peak [1]: 2226 cm⁻¹
Abs [2]: 283 nm
εabs [2]: 32300 M⁻¹ cm⁻¹

O=c1c(C#Cc2ccccc2)c1-c1ccccc1 [2-cyclo (3), 2-phenyl-3-(phenylethynyl)cycloprop-2-en-1-one]
RIE (relative Raman intensity to EdU) [1]: 7.5
Raman Peak [1]: 2218 cm⁻¹
Abs [2]: 324 nm
εabs [2]: 32400 M⁻¹ cm⁻¹
uncaging kinetics k ([3]; 365 nm illumination (15 mW/cm^2), increase of alkyne peak 2226 cm^-1): 0.020 s⁻¹
uncaging kinetics, fold faster than 1-cyclo (1) ([3]; 365 nm lamp illumination): about 5 fold

O=c1c(C#Cc2ccccc2)c(C#Cc2ccccc2)c1=O [3-cyclo (5), 3,4-Bis(phenylethynyl)-3-cyclobutene-1,2-dione]
RIE (relative Raman intensity to EdU) [1]: 13
Raman Peak [1]: 2194 cm⁻¹
Abs [2]: 371 nm
εabs [2]: 25500 M⁻¹ cm⁻¹

O=c1c(-c2ccccc2)c1-c1ccc(OCCOCCOCCCCCCCl)cc1 [Cyclo-LD (17), 2-(4-(2-(2-((6-chlorohexyl)oxy)ethoxy)ethoxy)phenyl)-3-phenylcycloprop-2-en-1-one]
correlation coefficient (Pearson's R value), set 1 (lipid droplets; Fl/2226 cm^-1 channel): 0.50
correlation coefficient (Pearson's R value), set 2 (lipid droplets; Fl/2226 cm^-1 channel): 0.76

O=c1c(-c2ccccc2)c1-c1ccc(OCCC[P+](c2ccccc2)(c2ccccc2)c2ccccc2)cc1.[Br-] [Cyclo-Mito (7)]
uncaging signals in labeled live cells (live HeLa cells): did not produce any observable uncaging signals

Cc1ccc(S(=O)(=O)NCCCOc2cc(C)c(-c3c(-c4c(C)cc(C)cc4C)c3=O)c(C)c2)cc1 [Me-ER (14)]
targeting, photoactivation and imaging performances (endoplasmic reticulum): highly specific targeting
correlation coefficient (Pearson's R value), set 1 (endoplasmic reticulum; [5]): 0.86
correlation coefficient (Pearson's R value), set 2 (endoplasmic reticulum; [5]): 0.80
correlation coefficient (Pearson's R value), set 3 (endoplasmic reticulum; [5]): 0.90

Cc1cc(C)c(-c2c(-c3c(C)cc(OCCOCCOCCCCCCCl)cc3C)c2=O)c(C)c1 [Me-LD (15)]
correlation coefficient (Pearson's R value), set 1 (lipid droplets; Fl/2205 cm^-1 channel): 0.54
correlation coefficient (Pearson's R value), set 2 (lipid droplets; Fl/2205 cm^-1 channel): 0.54
correlation coefficient (Pearson's R value), set 3 (lipid droplets; Fl/2205 cm^-1 channel): 0.50

Cc1cc(C)c(-c2c(-c3c(C)cc(OCCN(C)C)cc3C)c2=O)c(C)c1 [Me-Lyso (13)]
correlation coefficient (Pearson's R value), set 1 (lysosomes; [6]): 0.60
correlation coefficient (Pearson's R value), set 2 (lysosomes; [6]): 0.67
correlation coefficient (Pearson's R value), set 3 (lysosomes; [6]): 0.62
lysosomes targeting (co-localization) (lysosomes; live cells co-labeled with Lysoview 488): desired co-localization

Cc1cc(C)c(-c2c(-c3c(C)cc(OCCC[P+](c4ccccc4)(c4ccccc4)c4ccccc4)cc3C)c2=O)c(C)c1 [Me-Mito (12)]
alkyne Raman peak / SRS channel after uncaging ([1]; organelle probes after UV / 405 nm uncaging): 2205 cm⁻¹
time stable to cysteine [4]: over 48 hours
correlation coefficient (Pearson's R value), set 1 (mitochondria; [7]): 0.85
correlation coefficient (Pearson's R value), set 2 (mitochondria; [7]): 0.82
correlation coefficient (Pearson's R value), set 3 (mitochondria; [7]): 0.88
SRS imaging at the alkyne channel after photoactivation (mitochondria; two minutes of 405 nm laser illumination, 2205 cm^-1): bright mitochondria pattern

Cc1cc(C)c(-c2c(-c3c(C)cc(O)cc3C)c2=O)c(C)c1 [compound 8]
time stable to cysteine [4]: ≥ 24 h

dibenzocyclooctynes [DIBO, reference compound]
RIE (relative Raman intensity to EdU) [1]: 1.8
Raman Peak [1]: 2171 cm⁻¹
Abs [2]: 323 nm
εabs [2]: 24200 M⁻¹ cm⁻¹

— patent US20230280275A1, “PHOTOACTIVATABLE VIBRATIONAL PROBES AND USES THEREOF” (California Institute of Technology, priority 2021, published 2023)
